Species: Rattus norvegicus
Experiment: Open TG-GATES - Regimen: Daily Repeat
Type: toxicity, organism-based, Sprague-Dawley
Parameters: regimen Daily Repeat, gender Male, age 6 weeks
Settings: in vivo, po, 30 mg/kg, route gavage, dose level High; for APTT / Bas / Eos / Fbg / Hb / Ht / Lym / MCH / MCHC / MCV / Mono / Neu / PT / Plat / RBC / Ret / WBC: tissue Blood; for KIDNEY_L / KIDNEY_R / KIDNEY_TOTAL: tissue Kidney; for LIVER: tissue Liver; for A/G / ALP / ALT / AST / BUN / CRE / Ca / Cl / DBIL / GLC / IP / K / LDH / Na / PL / RALB / TBIL / TC / TG / TP / gamma-GTP: tissue Plasma

Compound `Cn1cnc([N+](=O)[O-])c1Sc1ncnc2nc[nH]c12` [AZATHIOPRINE] has a TERMINAL_BW (72 h, time 3 day) of 201.9 g, an APTT (72 h, time 3 day) of 19.5 s and a Bas (72 h, time 3 day) of 0%. It also gave an Eos (72 h, time 3 day) of 0.8%, a Fbg (72 h, time 3 day) of 327.6 mg/dL and a Hb (72 h, time 3 day) of 12.7 g/dL. The Ht (72 h, time 3 day) was 37.9%, the Lym (72 h, time 3 day) was 86% and the MCH (72 h, time 3 day) was 21.7 pg. It also gave an MCHC (72 h, time 3 day) of 33.5%, an MCV (72 h, time 3 day) of 64.7 fL and a Mono (72 h, time 3 day) of 2.2%. The Neu (72 h, time 3 day) was 9.4%, the PT (72 h, time 3 day) was 15.3 s and the Plat (72 h, time 3 day) was 140.5 x10_4/uL. The RBC (72 h, time 3 day) was 585.2 x10_4/ul, the Ret (72 h, time 3 day) was 2.3% and the WBC (72 h, time 3 day) was 55.5 x10_2/uL. It also gave a KIDNEY_L (72 h, time 3 day) of 0.9 g, a KIDNEY_R (72 h, time 3 day) of 0.9 g and a KIDNEY_TOTAL (72 h, time 3 day) of 1.8 g. For the same compound, the LIVER (72 h, time 3 day) was 9.7 g, the A/G (72 h, time 3 day) was 1.2 and the ALP (72 h, time 3 day) was 1508.2 IU/L. It also gave an ALT (72 h, time 3 day) of 33 IU/L, an AST (72 h, time 3 day) of 68.2 IU/L and a BUN (72 h, time 3 day) of 17.2 mg/dL. For the same compound, the CRE (72 h, time 3 day) was 0.1 mg/dL, the Ca (72 h, time 3 day) was 11.3 mg/dL and the Cl (72 h, time 3 day) was 106 meq/L. The DBIL (72 h, time 3 day) was 0 mg/dL, the GLC (72 h, time 3 day) was 185 mg/dL and the IP (72 h, time 3 day) was 6.8 mg/dL. For the same compound, the K (72 h, time 3 day) was 4.4 meq/L, the LDH (72 h, time 3 day) was 199.8 IU/L and the Na (72 h, time 3 day) was 143 meq/L. For the same compound, the PL (72 h, time 3 day) was 160.4 mg/dL, the RALB (72 h, time 3 day) was 3.3 g/dL and the TBIL (72 h, time 3 day) was 0.008 mg/dL. The TC (72 h, time 3 day) was 91.8 mg/dL, the TG (72 h, time 3 day) was 77 mg/dL and the TP (72 h, time 3 day) was 6 g/dL. For the same compound, the gamma-GTP (72 h, time 3 day) was 1.4 IU/L, the TERMINAL_BW ([…], time 7 day) was 220 g and the TERMINAL_BW ([…], time 14 day) was 226 g. For the same compound, the TERMINAL_BW ([…], time 28 day) was 300.4 g, the APTT ([…], time 7 day) was 21.5 s and the Bas ([…], time 7 day) was 0%. For the same compound, the Eos ([…], time 7 day) was 1%, the Fbg ([…], time 7 day) was 314.4 mg/dL and the Hb ([…], time 7 day) was 12.4 g/dL. The Ht ([…], time 7 day) was 36%, the Lym ([…], time 7 day) was 84.6% and the MCH ([…], time 7 day) was 22.1 pg. For the same compound, the MCHC ([…], time 7 day) was 34.5%, the MCV ([…], time 7 day) was 64.2 fL and the Mono ([…], time 7 day) was 1.8%. The Neu ([…], time 7 day) was 11.6%, the PT ([…], time 7 day) was 15.1 s and the Plat ([…], time 7 day) was 192.2 x10_4/uL. It also gave an RBC ([…], time 7 day) of 561.4 x10_4/ul, a Ret ([…], time 7 day) of 4.1% and a WBC ([…], time 7 day) of 73.3 x10_2/uL. It also gave an APTT ([…], time 14 day) of 28.3 s, a Bas ([…], time 14 day) of 0% and an Eos ([…], time 14 day) of 0.2%. It also gave a Fbg ([…], time 14 day) of 458.2 mg/dL, a Hb ([…], time 14 day) of 12.5 g/dL and a Ht ([…], time 14 day) of 35%. It also gave a Lym ([…], time 14 day) of 85.8%, an MCH ([…], time 14 day) of 21.8 pg and an MCHC ([…], time 14 day) of 35.6%. It also gave an MCV ([…], time 14 day) of 61.2 fL, a Mono ([…], time 14 day) of 2% and a Neu ([…], time 14 day) of 10.6%. The PT ([…], time 14 day) was 18.9 s, the Plat ([…], time 14 day) was 86.4 x10_4/uL and the RBC ([…], time 14 day) was 571.6 x10_4/ul. It also gave a Ret ([…], time 14 day) of 3%, a WBC ([…], time 14 day) of 49.6 x10_2/uL and an APTT ([…], time 28 day) of 24.3 s. It also gave a Bas ([…], time 28 day) of 0%, an Eos ([…], time 28 day) of 1% and a Fbg ([…], time 28 day) of 339.5 mg/dL. For the same compound, the Hb ([…], time 28 day) was 12.4 g/dL, the Ht ([…], time 28 day) was 35.6% and the Lym ([…], time 28 day) was 87%. It also gave an MCH ([…], time 28 day) of 21.5 pg, an MCHC ([…], time 28 day) of 34.9% and an MCV ([…], time 28 day) of 61.6 fL. It also gave a Mono ([…], time 28 day) of 1%, a Neu ([…], time 28 day) of 10.5% and a PT ([…], time 28 day) of 16.4 s. It also gave a Plat ([…], time 28 day) of 135.4 x10_4/uL, an RBC ([…], time 28 day) of 577.5 x10_4/ul and a Ret ([…], time 28 day) of 5.3%. For the same compound, the WBC ([…], time 28 day) was 35.2 x10_2/uL, the KIDNEY_L ([…], time 7 day) was 1 g and the KIDNEY_R ([…], time 7 day) was 1 g. The KIDNEY_TOTAL ([…], time 7 day) was 2 g, the KIDNEY_L ([…], time 14 day) was 1.1 g and the KIDNEY_R ([…], time 14 day) was 1.1 g. For the same compound, the KIDNEY_TOTAL ([…], time 14 day) was 2.1 g, the KIDNEY_L ([…], time 28 day) was 1.1 g and the KIDNEY_R ([…], time 28 day) was 1.2 g. It also gave a KIDNEY_TOTAL ([…], time 28 day) of 2.3 g, an LIVER ([…], time 7 day) of 10.9 g and an LIVER ([…], time 14 day) of 11.5 g. It also gave an LIVER ([…], time 28 day) of 12.9 g, an A/G ([…], time 7 day) of 1.1 and an ALP ([…], time 7 day) of 1412.8 IU/L. The ALT ([…], time 7 day) was 29.6 IU/L, the AST ([…], time 7 day) was 75.2 IU/L and the BUN ([…], time 7 day) was 17.8 mg/dL. It also gave a CRE ([…], time 7 day) of 0.1 mg/dL, a Ca ([…], time 7 day) of 11.3 mg/dL and a Cl ([…], time 7 day) of 105.2 meq/L. It also gave a DBIL ([…], time 7 day) of 0 mg/dL, a GLC ([…], time 7 day) of 191.2 mg/dL and an IP ([…], time 7 day) of 6.6 mg/dL. It also gave a K ([…], time 7 day) of 4.1 meq/L, an LDH ([…], time 7 day) of 255.6 IU/L and a Na ([…], time 7 day) of 142.6 meq/L. For the same compound, the PL ([…], time 7 day) was 179.8 mg/dL, the RALB ([…], time 7 day) was 3.3 g/dL and the TBIL ([…], time 7 day) was 0.01 mg/dL. The TC ([…], time 7 day) was 98.2 mg/dL, the TG ([…], time 7 day) was 56.4 mg/dL and the TP ([…], time 7 day) was 6.2 g/dL. The gamma-GTP ([…], time 7 day) was 1 IU/L, the A/G ([…], time 14 day) was 0.9 and the ALP ([…], time 14 day) was 976.6 IU/L. For the same compound, the ALT ([…], time 14 day) was 135 IU/L, the AST ([…], time 14 day) was 523.6 IU/L and the BUN ([…], time 14 day) was 31.6 mg/dL. For the same compound, the CRE ([…], time 14 day) was 0.2 mg/dL, the Ca ([…], time 14 day) was 11.2 mg/dL and the Cl ([…], time 14 day) was 106.8 meq/L. The DBIL ([…], time 14 day) was 0.036 mg/dL, the GLC ([…], time 14 day) was 168.8 mg/dL and the IP ([…], time 14 day) was 8.4 mg/dL. It also gave a K ([…], time 14 day) of 4.8 meq/L, an LDH ([…], time 14 day) of 1529.2 IU/L and a Na ([…], time 14 day) of 142.6 meq/L. For the same compound, the PL ([…], time 14 day) was 149.6 mg/dL, the RALB ([…], time 14 day) was 3 g/dL and the TBIL ([…], time 14 day) was 0.074 mg/dL. It also gave a TC ([…], time 14 day) of 94.8 mg/dL, a TG ([…], time 14 day) of 35.8 mg/dL and a TP ([…], time 14 day) of 6.5 g/dL. For the same compound, the gamma-GTP ([…], time 14 day) was 1.4 IU/L, the A/G ([…], time 28 day) was 1.1 and the ALP ([…], time 28 day) was 982 IU/L. It also gave an ALT ([…], time 28 day) of 32 IU/L, an AST ([…], time 28 day) of 71.5 IU/L and a BUN ([…], time 28 day) of 19 mg/dL. The CRE ([…], time 28 day) was 0.2 mg/dL, the Ca ([…], time 28 day) was 10.8 mg/dL and the Cl ([…], time 28 day) was 106.5 meq/L. For the same compound, the DBIL ([…], time 28 day) was 0.01 mg/dL, the GLC ([…], time 28 day) was 192.5 mg/dL and the IP ([…], time 28 day) was 5.7 mg/dL. For the same compound, the K ([…], time 28 day) was 3.9 meq/L, the LDH ([…], time 28 day) was 214 IU/L and the Na ([…], time 28 day) was 141.5 meq/L. It also gave a PL ([…], time 28 day) of 138.5 mg/dL, an RALB ([…], time 28 day) of 3.4 g/dL and a TBIL ([…], time 28 day) of 0.05 mg/dL. The TC ([…], time 28 day) was 73 mg/dL, the TG ([…], time 28 day) was 42.5 mg/dL and the TP ([…], time 28 day) was 6.5 g/dL. The gamma-GTP ([…], time 28 day) was 2 IU/L.
